The text below walks through data of patent US12161722B2, “Bifunctional heterocyclic compound having BTK degradation function via ubiquitin proteasome pathway, and use thereof” (KOREA RESEARCH INSTITUTE OF CHEMICAL TECHNOLOGY, priority 2021, dated 2024).

Broadly, the DC50 is the concentration at which degradation of the target reaches its halfway point.

The assay addresses T1, WT BTK protein (Homo sapiens, UniProt Q06187).
T1 construct: measured for intracellular BTK protein levels by Western blotting; endogenous in cells; host or cells: TMD-8 or RAMOS cells
Briefly: BTK protein degradation assay (Western blotting), WT BTK. It counts as cell-based. As to conditions: concentration range accounting for 50% degradation of WT BTK protein, TMD-8 or RAMOS cells, 24 hours. Here is the method: TMD-8, RAMOS, or 293T BTK MUT (C481S) cells were treated with the synthesized compounds and measured for intracellular BTK protein levels by Western blotting. The protocol of the experiment using TMD-8 cells is as follows.
TMD-8 cells were resuspended in an RPMI1640 medium (Hyclone, SH30027.01, 10% FBS (Hyclone, SV30207.02), 1% penicillin-streptomycin (Welgene, LS 202-02) and the cell suspension was seeded at a density of 1×10^6 cells/mL in an amount of 1 mL per well into 12-well plates.
The 12-well plates were treated as follows. A 10 mM stock was 1/10 diluted in series with DMSO ([…]) to form final concentrations of 10, 1, 0.1, 0.01, 0.001, and 0.0001 mM. The compounds with such concentrations were applied to cells, followed by harvesting the cells 24 hours later. For a negative control, a 1/10 dilution of DMSO in the medium (3 mL DMSO+27 mL medium) was used.
The 1-mL cell culture in each well was passed many times through a pipette and then transferred into a 1.5-mL microtube before centrifugation (500 g, 5 min, 4° C.). The supernatant was discarded and the cell pellet was washed with PBS. After centrifugation (500 g, 5 min, 4° C.) again, the supernatant was discarded and the cell pellet was taken.
A lysis buffer was prepared as follows. RIPA buffer (Biosesang, RC2038-050-00)+0.5 mM PMSF (SIGMA, P7626)+1×Protease/Phosphatase Inhibitor (Cell signaling, 5872S) was added in an amount […] per well and left for 30 minutes on ice (vortexing at 0 and 30 minutes) before sonication (5 cycles of pulse for 10 seconds and rest for 30 seconds, 70% amplification). The supernatant obtained by centrifugation (15000 g, 15 min, 4° C.) was transferred into a new microtube. Cells in each well of 96-well plates were 1/2 diluted with the RIPA buffer and incubated at 37° C. for 30 minutes with […] of a 50:1 mixture of BCA reagents A and B in BCA Protein Assay Kit (iNtRON, 21071). After being cooled for 10 minutes, the 96-well plates were measured for absorbance at 562 nm on the BioTek, SYNERGY H1 microplate reader. Samples were prepared by protein quantification based on the absorbance measurements and then boiled at 70° C. for 10 minutes. The sample buffer used in the case was prepared by mixing a NuPAGE or a Bolt 4× sample buffer (Invitrogen) and its 10× sample reducing agent depending on the gel to be used, and protein dilution was made in a RIPI buffer.
The samples were loaded in the same amount into a NuPAGE or Bolt Bis-tris 4-12% gradient gel and allowed to run therein (200 V, 35 minutes). The separated proteins were transferred onto a […] NC membrane, using Trans-blot Turbo (BIO-RAD) (1.3 A constant, 25V limit, 15 minutes). The membrane was blocked at room temperature for 1 hour with skim milk or Intercept Blocking Buffer (LI-COR, 927-60001):0.1% TBST=1:1. The membrane was incubated with Anti BTK Rabbit (1:1,000 in 5% skim milk/0.2% TBST, size: 77 kDa, Cell signaling Technology) at 4° C. overnight O/N or at room temperature for 2 hours and with Anti GAPDH Rabbit (1:10,000 in 5% BSA/0.2% TBST, size: 36 kDa, GENETEX) and Anti β-actin mouse (1:10,000 in 5% BSA/0.2% TBST, RT, size: 43 kDa, GENETEX) at room temperature for 1 or 3 hours. Then, the membrane was washed three times with 0.5% TBST for 5 minutes each time before incubation with the second antibody Anti-Rabbit IgG (1:5,000 in 5% Skim milk/TBST, CST), IRDye® 800CW Goat anti-Rabbit IgG Secondary Antibody (1:10,000 in 5% skim/TBST, RT 45 min), or IRDye® 680RD Goat anti-Mouse IgG Secondary Antibody (1:10,000 in 5% skim/TBST, RT 45 min) for 45 minutes at room temperature in a rocker. The membrane was washed five times with 0.5% TBST for 5 minutes in each time, followed by detection with LI-COR, Odyssey. In this regard, the detection proceeded, as it was, for house-keeping genes while using SuperSignal West Pico PLUS Chemiluminescent Substrate or SuperSignal West femto Maximum Sensitivity Substrate for BTK detection. […]

T1 sequence (Q06187 whole entry): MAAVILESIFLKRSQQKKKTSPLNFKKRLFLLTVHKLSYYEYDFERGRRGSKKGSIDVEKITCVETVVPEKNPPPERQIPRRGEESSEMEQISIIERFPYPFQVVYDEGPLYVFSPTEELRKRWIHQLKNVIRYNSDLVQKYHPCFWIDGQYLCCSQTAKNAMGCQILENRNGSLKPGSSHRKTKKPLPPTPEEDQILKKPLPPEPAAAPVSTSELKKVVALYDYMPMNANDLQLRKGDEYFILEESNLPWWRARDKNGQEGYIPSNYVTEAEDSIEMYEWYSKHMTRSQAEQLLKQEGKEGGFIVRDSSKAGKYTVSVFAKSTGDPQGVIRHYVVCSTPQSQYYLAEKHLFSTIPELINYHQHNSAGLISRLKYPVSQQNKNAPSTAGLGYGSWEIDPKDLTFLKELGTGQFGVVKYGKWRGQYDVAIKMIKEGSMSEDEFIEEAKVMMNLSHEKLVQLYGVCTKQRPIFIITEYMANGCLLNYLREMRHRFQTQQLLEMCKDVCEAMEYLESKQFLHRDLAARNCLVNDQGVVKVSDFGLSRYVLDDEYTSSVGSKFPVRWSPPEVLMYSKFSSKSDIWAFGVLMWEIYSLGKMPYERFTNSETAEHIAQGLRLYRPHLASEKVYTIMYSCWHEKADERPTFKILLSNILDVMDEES

Regarding `Cc1cccc(C)c1Nc1nn(C)c2nc(Nc3ccc4c(c3)CN(CC3CCN(CC5CN(c6ccc7c(c6)C(=O)N(C6CCC(=O)NC6=O)C7=O)C5)CC3)CC4)ncc12` (centres unmarked) [Compound 50, 5-(3-((4-((7-((3-((2,6-Dimethylphenyl)amino)-1-methyl-1H-pyrazolo[3,4-d]pyrimidin-6-yl)amino)-3,4-dihydroisoquinolin-2 (1H)-yl)methyl)piperidin-1-yl)methyl)azetidin-1-yl)-2-(2,6-dioxopiperidin-3-yl)isoindoline-1,3-dione], the DC50 lay within 10 to 1000 nM.

As for `Cc1cccc(C)c1Nc1nn(C)c2nc(Nc3ccc4c(c3)CN(CC3CN(C(=O)CNc5ccc6c(c5)C(=O)N(C5CCC(=O)NC5=O)C6=O)C3)CC4)ncc12` (centres unmarked) [Compound 51, 5-((2-(3-((7-((3-((2,6-Dimethylphenyl)amino)-1-methyl-1H-pyrazolo[3,4-d]pyrimidin-6-yl)amino)-3,4-dihydroisoquinolin-2 (1H)-yl)methyl)azetidin-1-yl)-2-oxoethyl)amino)-2-(2,6-dioxopiperidin-3-yl)isoindoline-1,3-dione], the DC50 lay in the range of 0.1 to 10 nM.

For `Cc1cccc(C)c1Nc1nn(C)c2nc(Nc3ccc4c(c3)CN(CC3CCN(C(=O)CNc5ccc6nnn(C7CCC(=O)NC7=O)c(=O)c6c5)CC3)CC4)ncc12` (centres unmarked) [Compound 52, 3-(6-((2-(4-((7-((3-((2,6-Dimethylphenyl)amino)-1-methyl-1H-pyrazolo[3,4-d]pyrimidin-6-yl)amino)-3,4-dihydroisoquinolin-2 (1H)-yl)methyl)piperidin-1-yl)-2-oxoethyl)amino)-4-oxobenzo[d][1,2,3]triazin-3 (4H)-yl)piperidin-2,6-one], the DC50 lay in the range of 0.1 to 10 nM.

On to `Cc1cccc(C)c1Nc1nn(C)c2nc(Nc3ccc4c(c3)CN(CC3CCN(C(=O)CCc5cccc6c5CN(C5CCC(=O)NC5=O)C6=O)CC3)CC4)ncc12` (centres unmarked) [Compound 64, 3-(4-(3-(4-((7-((3-((2,6-Dimethylphenyl)amino)-1-methyl-1H-pyrazolo[3,4-d]pyrimidin-6-yl)amino)-3,4-dihydroisoquinolin-2 (1H)-yl)methyl)piperidin-1-yl)-3-oxopropyl)-1-oxoisoindolin-2-yl)piperidin-2,6-one], for which the DC50 lay within 0.1 to 10 nM.

As to `Cc1cccc(C)c1Nc1nn(C)c2nc(Nc3ccc4c(c3)CN(C(=O)C3CCN(c5ccc6c(c5)C(=O)N(C5CCC(=O)NC5=O)C6=O)C3)CC4)ncc12` (centres unmarked) [Compound 66], the DC50 lay within 10 to 1000 nM.

In the case of `Cc1cccc(C)c1Nc1nn(C)c2nc(Nc3ccc4c(c3)CN(C(=O)C3CCN(C(=O)C5CCN(c6ccc7c(c6)C(=O)N(C6CCC(=O)NC6=O)C7=O)CC5)C3)CC4)ncc12` (centres unmarked) [Compound 67, 5-(4-(3-(7-((3-((2,6-Dimethylphenyl)amino)-1-methyl-1H-pyrazolo[3,4-d]pyrimidin-6-yl)amino)-1,2,3,4-tetrahydroisoquinoline-2-carbonyl)pyrrolidine-1-carbonyl)piperidin-1-yl)-2-(2,6-dioxopiperidin-3-yl)isoindoline-1,3-dione], the DC50 fell in the range of 10 to 1000 nM.

As to `Cc1cccc(C)c1Nc1nn(C)c2nc(Nc3ccc4c(c3)CN(C(=O)C3CCN(C(=O)CNc5ccc6c(=O)n(C7CCC(=O)NC7=O)nnc6c5)CC3)CC4)ncc12` (centres unmarked) [Compound 68, 3-(7-((2-(4-(7-((3-((2,6-Dimethylphenyl)amino)-1-methyl-1H-pyrazolo[3,4-d]pyrimidin-6-yl)amino)-1,2,3,4-tetrahydroisoquinoline-2-carbonyl)piperidin-1-yl)-2-oxoethyl)amino)-4-oxobenzo[d][1,2,3]triazin-3 (4H)-yl)piperidin-2,6-one], the DC50 fell in the range of 10 to 1000 nM.

Turning to `Cc1cccc(C)c1Nc1nn(C)c2nc(Nc3ccc4c(c3)CN(C(=O)C3CCN(c5ccc6c(=O)n(C7CCC(=O)NC7=O)nnc6c5)CC3)CC4)ncc12` (centres unmarked) [Compound 69, 3-(7-(4-(7-((3-((2,6-Dimethylphenyl)amino)-1-methyl-1H-pyrazolo[3,4-d]pyrimidin-6-yl)amino)-1,2,3,4-tetrahydroisoquinoline-2-carbonyl)piperidin-1-yl)-4-oxobenzo[d][1,2,3]triazin-3 (4H)-yl)piperidin-2,6-one], the DC50 is 10 to 1000 nM.

`Cc1cccc(C)c1Nc1nn(C)c2nc(Nc3ccc4c(c3)CN(C(=O)CNc3ccc5c(c3)C(=O)N(C3CCC(=O)NC3=O)C5=O)CC4)ncc12` (centres unmarked) [Compound 72, 5-((2-(7-((3-((2,6-Dimethylphenyl)amino)-1-methyl-1H-pyrazolo[3,4-d]pyrimidin-6-yl)amino)-3,4-dihydroisoquinolin-2 (1H)-yl)-2-oxoethyl)amino)-2-(2,6-dioxopiperidin-3-yl)isoindoline-1,3-dione]: the DC50 is 10 to 1000 nM.

With `Cc1cccc(C)c1Nc1nn(C)c2nc(Nc3ccc4c(c3)CN(CC3CCN(c5ccc6c(c5)C(=O)N(C5CCC(=O)NC5=O)C6=O)CC3)C4)ncc12` (centres unmarked) [Compound 73, 5-(4-((5-((3-((2,6-Dimethylphenyl)amino)-1-methyl-1H-pyrazolo[3,4-d]pyrimidin-6-yl)amino)isoindolin-2-yl)methyl)piperidin-1-yl)-2-(2,6-dioxopiperidin-3-yl)isoindoline-1,3-dione], the half-maximal degradation concentration (DC50) lay in the range of 10 to 1000 nM.

In the case of `Cc1cccc(C)c1Nc1nn(C)c2nc(Nc3ccc4c(c3)CN(CC3CCN(c5ccc6c(=O)n(C7CCC(=O)NC7=O)nnc6c5)CC3)C4)ncc12` (centres unmarked) [Compound 74, 3-(7-(4-((5-((3-((2,6-Dimethylphenyl)amino)-1-methyl-1H-pyrazolo[3,4-d]pyrimidin-6-yl)amino)isoindolin-2-yl)methyl)piperidin-1-yl)-4-oxobenzo[d][1,2,3]triazin-3 (4H)-yl)piperidin-2,6-one], the DC50 lay in the range of 10 to 1000 nM.

Take `Cc1cccc(C)c1Nc1nn(C)c2nc(Nc3ccc4c(c3)C(C)N(CC3CCN(c5ccc6c(c5)C(=O)N(C5CCC(=O)NC5=O)C6=O)CC3)CC4)ncc12` (centres unmarked) [Compound 75, 5-(4-((7-((3-((2,6-Dimethylphenyl)amino)-1-methyl-1H-pyrazolo[3,4-d]pyrimidin-6-yl)amino)-1-methyl-3,4-dihydroisoquinolin-2 (1H)-yl)methyl)piperidin-1-yl)-2-(2,6-dioxopiperidin-3-yl)isoindoline-1,3-dione]: the DC50 is 10 to 1000 nM.

For `COCCOc1cc(C)c(Nc2nn(C)c3nc(Nc4ccc5c(c4)CN(CC4CCN(c6ccc7c(c6)C(=O)N(C6CCC(=O)NC6=O)C7=O)CC4)CC5)ncc23)c(C)c1` (centres unmarked) [Compound 76, 2-(2,6-Dioxopiperidin-3-yl)-5-(4-((7-((3-((4-(2-methoxyethoxy)-2,6-dimethylphenyl)amino)-1-methyl-1H-pyrazolo[3,4-d]pyrimidin-6-yl)amino)-3,4-dihydroisoquinolin-2 (1H)-yl)methyl)piperidin-1-yl)isoindoline-1,3-dione], the DC50 was 10 to 1000 nM.

As to `Cc1cccc(C)c1Nc1nn(C)c2nc(Nc3ccc4c(c3)CN(CC3CCN(C(=O)CNc5ccc6c(c5)CN(C5CCC(=O)NC5=O)C6=O)CC3)CC4)ncc12` (centres unmarked) [Compound 80, 3-(5-((2-(4-((7-((3-((2,6-Dimethylphenyl)amino)-1-methyl-1H-pyrazolo[3,4-d]pyrimidin-6-yl)amino)-3,4-dihydroisoquinolin-2 (1H)-yl)methyl)piperidin-1-yl)-2-oxoethyl)amino)-1-oxoisoindolin-2-yl)piperidin-2,6-one], the 50% degradation concentration (DC50) lay in the range of 0.1 to 10 nM.
